Measurements from patent US8779004B2, “Stable emulsion formulations” (Amgen, Inc., priority 2006, dated 2014).

Experiment: Short-term storage stability of emulsions (drug conc., pH, particle size)
Type: physicochemical
Details: for stability in the emulsion formulation: over 12 weeks, 5° C. and 40° C.; for Cinacalcet conc. / D(4, 3) / pH: emulsion
Source text: This Example illustrates the effect of the storage temperature on short-term stability of the formulations of the invention as measured by pH and the size of the droplets. The results of short term stability of cinacalcet at different temperatures and varying TRIS buffer concentrations are presented in Table 8. Cinacalcet was stable in the emulsion formulation over 12 weeks. The pH of the emulsion is lower over time for both placebo and cinacalcet emulsions. The drop in pH is less at lower storage temperature and higher TRIS concentration.
The results of short-term stability of cinacalcet at different temperatures and varying DEA buffer concentrations are presented in Table 9. Cinacalcet was stable in the emulsion formulation over 12 weeks. pH of the emulsion is lower over time for both placebo and cinacalcet emulsion. The drop in pH is less at lower storage temperature and higher DEA concentration.

C[C@@H](NCCCc1cccc(C(F)(F)F)c1)c1cccc2ccccc12 [Cinacalcet, N-(1-(R)-(1-naphthyl)ethyl]-3-[3-(trifluoromethyl)phenyl]-1-aminopropane]
stability in the emulsion formulation (DEA buffered emulsion): stable
stability in the emulsion formulation (TRIS buffered emulsion): stable
Cinacalcet conc. (DEA 0.05%, 5° C., 0 weeks): 4.42 mg/mL
D(4, 3) (DEA 0.05%, 5° C., 0 weeks): 0.39 µm
pH (DEA 0.05%, 5° C., 0 weeks): 8.77
Cinacalcet conc. (DEA 0.05%, 5° C., 2 weeks): 4.14 mg/mL
D(4, 3) (DEA 0.05%, 5° C., 2 weeks): 0.39 µm
pH (DEA 0.05%, 5° C., 2 weeks): 8.64
Cinacalcet conc. (DEA 0.05%, 5° C., 4 weeks): 4.35 mg/mL
D(4, 3) (DEA 0.05%, 5° C., 4 weeks): 0.4 µm
pH (DEA 0.05%, 5° C., 4 weeks): 8.65
Cinacalcet conc. (DEA 0.05%, 5° C., 6 weeks): 4.28 mg/mL
D(4, 3) (DEA 0.05%, 5° C., 6 weeks): 0.76 µm
pH (DEA 0.05%, 5° C., 6 weeks): 8.59
Cinacalcet conc. (DEA 0.05%, 5° C., 8 weeks): 4.43 mg/mL
D(4, 3) (DEA 0.05%, 5° C., 8 weeks): 0.4 µm
pH (DEA 0.05%, 5° C., 8 weeks): 8.67
Cinacalcet conc. (DEA 0.05%, 5° C., 12 weeks): 4.29 mg/mL
D(4, 3) (DEA 0.05%, 5° C., 12 weeks): 0.4 µm
pH (DEA 0.05%, 5° C., 12 weeks): 8.58
Cinacalcet conc. (DEA 0.05%, 40° C., 0 weeks): 4.42 mg/mL
D(4, 3) (DEA 0.05%, 40° C., 0 weeks): 0.39 µm
pH (DEA 0.05%, 40° C., 0 weeks): 8.77
Cinacalcet conc. (DEA 0.05%, 40° C., 2 weeks): 4.15 mg/mL
D(4, 3) (DEA 0.05%, 40° C., 2 weeks): 0.39 µm
pH (DEA 0.05%, 40° C., 2 weeks): 8.46
Cinacalcet conc. (DEA 0.05%, 40° C., 4 weeks): 4.30 mg/mL
D(4, 3) (DEA 0.05%, 40° C., 4 weeks): 0.4 µm
pH (DEA 0.05%, 40° C., 4 weeks): 8.36
Cinacalcet conc. (DEA 0.05%, 40° C., 6 weeks): 4.28 mg/mL
D(4, 3) (DEA 0.05%, 40° C., 6 weeks): 0.39 µm
pH (DEA 0.05%, 40° C., 6 weeks): 8.25
Cinacalcet conc. (DEA 0.05%, 40° C., 8 weeks): 4.39 mg/mL
D(4, 3) (DEA 0.05%, 40° C., 8 weeks): 0.43 µm
pH (DEA 0.05%, 40° C., 8 weeks): 8.29
Cinacalcet conc. (DEA 0.05%, 40° C., 12 weeks): 4.31 mg/mL
D(4, 3) (DEA 0.05%, 40° C., 12 weeks): 0.43 µm
pH (DEA 0.05%, 40° C., 12 weeks): 8.12
Cinacalcet conc. (DEA 0.30%, 5° C., 0 weeks): 4.78 mg/mL
D(4, 3) (DEA 0.30%, 5° C., 0 weeks): 0.36 µm
pH (DEA 0.30%, 5° C., 0 weeks): 9.12
Cinacalcet conc. (DEA 0.30%, 5° C., 2 weeks): 4.60 mg/mL
D(4, 3) (DEA 0.30%, 5° C., 2 weeks): 0.35 µm
pH (DEA 0.30%, 5° C., 2 weeks): 9.07
Cinacalcet conc. (DEA 0.30%, 5° C., 4 weeks): 4.67 mg/mL
D(4, 3) (DEA 0.30%, 5° C., 4 weeks): 0.37 µm
pH (DEA 0.30%, 5° C., 4 weeks): 9.12
Cinacalcet conc. (DEA 0.30%, 5° C., 6 weeks): 4.60 mg/mL
D(4, 3) (DEA 0.30%, 5° C., 6 weeks): 0.37 µm
pH (DEA 0.30%, 5° C., 6 weeks): 9.11
Cinacalcet conc. (DEA 0.30%, 5° C., 8 weeks): 4.79 mg/mL
D(4, 3) (DEA 0.30%, 5° C., 8 weeks): 0.37 µm
pH (DEA 0.30%, 5° C., 8 weeks): 9.15
Cinacalcet conc. (DEA 0.30%, 5° C., 12 weeks): 4.66 mg/mL
D(4, 3) (DEA 0.30%, 5° C., 12 weeks): 0.36 µm
Cinacalcet conc. (DEA 0.30%, 40° C., 0 weeks): 4.78 mg/mL
D(4, 3) (DEA 0.30%, 40° C., 0 weeks): 0.36 µm
pH (DEA 0.30%, 40° C., 0 weeks): 9.12
Cinacalcet conc. (DEA 0.30%, 40° C., 2 weeks): 4.58 mg/mL
D(4, 3) (DEA 0.30%, 40° C., 2 weeks): 0.36 µm
pH (DEA 0.30%, 40° C., 2 weeks): 8.98
Cinacalcet conc. (DEA 0.30%, 40° C., 4 weeks): 4.73 mg/mL
D(4, 3) (DEA 0.30%, 40° C., 4 weeks): 0.36 µm
pH (DEA 0.30%, 40° C., 4 weeks): 8.99
Cinacalcet conc. (DEA 0.30%, 40° C., 6 weeks): 4.65 mg/mL
D(4, 3) (DEA 0.30%, 40° C., 6 weeks): 0.36 µm
pH (DEA 0.30%, 40° C., 6 weeks): 8.93
Cinacalcet conc. (DEA 0.30%, 40° C., 8 weeks): 4.83 mg/mL
D(4, 3) (DEA 0.30%, 40° C., 8 weeks): 0.37 µm
pH (DEA 0.30%, 40° C., 8 weeks): 8.95
Cinacalcet conc. (DEA 0.30%, 40° C., 12 weeks): 4.71 mg/mL
D(4, 3) (DEA 0.30%, 40° C., 12 weeks): 0.38 µm
Cinacalcet conc. (TRIS 5 mM, 5° C., 0 weeks): 4.43 mg/mL
D(4, 3) (TRIS 5 mM, 5° C., 0 weeks): 0.31 µm
pH (TRIS 5 mM, 5° C., 0 weeks): 8.80
Cinacalcet conc. (TRIS 5 mM, 5° C., 2 weeks): 4.18 mg/mL
D(4, 3) (TRIS 5 mM, 5° C., 2 weeks): 0.31 µm
pH (TRIS 5 mM, 5° C., 2 weeks): 8.69
Cinacalcet conc. (TRIS 5 mM, 5° C., 4 weeks): 4.38 mg/mL
D(4, 3) (TRIS 5 mM, 5° C., 4 weeks): 0.3 µm
pH (TRIS 5 mM, 5° C., 4 weeks): 8.65
Cinacalcet conc. (TRIS 5 mM, 5° C., 6 weeks): 4.33 mg/mL
D(4, 3) (TRIS 5 mM, 5° C., 6 weeks): 0.3 µm
pH (TRIS 5 mM, 5° C., 6 weeks): 8.59
Cinacalcet conc. (TRIS 5 mM, 5° C., 8 weeks): 4.47 mg/mL
D(4, 3) (TRIS 5 mM, 5° C., 8 weeks): 0.31 µm
pH (TRIS 5 mM, 5° C., 8 weeks): 8.60
Cinacalcet conc. (TRIS 5 mM, 5° C., 12 weeks): 4.32 mg/mL
D(4, 3) (TRIS 5 mM, 5° C., 12 weeks): 0.31 µm
pH (TRIS 5 mM, 5° C., 12 weeks): 8.50
Cinacalcet conc. (TRIS 5 mM, 40° C., 0 weeks): 4.43 mg/mL
D(4, 3) (TRIS 5 mM, 40° C., 0 weeks): 0.31 µm
pH (TRIS 5 mM, 40° C., 0 weeks): 8.80
Cinacalcet conc. (TRIS 5 mM, 40° C., 2 weeks): 4.17 mg/mL
D(4, 3) (TRIS 5 mM, 40° C., 2 weeks): 0.31 µm
pH (TRIS 5 mM, 40° C., 2 weeks): 8.41
Cinacalcet conc. (TRIS 5 mM, 40° C., 4 weeks): 4.36 mg/mL
D(4, 3) (TRIS 5 mM, 40° C., 4 weeks): 0.31 µm
pH (TRIS 5 mM, 40° C., 4 weeks): 8.29
Cinacalcet conc. (TRIS 5 mM, 40° C., 6 weeks): 4.29 mg/mL
D(4, 3) (TRIS 5 mM, 40° C., 6 weeks): 0.47 µm
pH (TRIS 5 mM, 40° C., 6 weeks): 8.20
Cinacalcet conc. (TRIS 5 mM, 40° C., 8 weeks): 4.45 mg/mL
D(4, 3) (TRIS 5 mM, 40° C., 8 weeks): 0.48 µm
pH (TRIS 5 mM, 40° C., 8 weeks): 8.11
Cinacalcet conc. (TRIS 5 mM, 40° C., 12 weeks): 4.33 mg/mL
D(4, 3) (TRIS 5 mM, 40° C., 12 weeks): 0.36 µm
pH (TRIS 5 mM, 40° C., 12 weeks): 8.12
Cinacalcet conc. (TRIS 20 mM, 5° C., 0 weeks): 4.92 mg/mL
D(4, 3) (TRIS 20 mM, 5° C., 0 weeks): 0.29 µm
pH (TRIS 20 mM, 5° C., 0 weeks): 9.13
Cinacalcet conc. (TRIS 20 mM, 5° C., 2 weeks): 4.47 mg/mL
D(4, 3) (TRIS 20 mM, 5° C., 2 weeks): 0.29 µm
pH (TRIS 20 mM, 5° C., 2 weeks): 8.98
Cinacalcet conc. (TRIS 20 mM, 5° C., 4 weeks): 4.79 mg/mL
D(4, 3) (TRIS 20 mM, 5° C., 4 weeks): 0.29 µm
pH (TRIS 20 mM, 5° C., 4 weeks): 8.99
Cinacalcet conc. (TRIS 20 mM, 5° C., 6 weeks): 4.72 mg/mL
D(4, 3) (TRIS 20 mM, 5° C., 6 weeks): 0.28 µm
pH (TRIS 20 mM, 5° C., 6 weeks): 8.87
Cinacalcet conc. (TRIS 20 mM, 5° C., 8 weeks): 4.91 mg/mL
D(4, 3) (TRIS 20 mM, 5° C., 8 weeks): 0.29 µm
pH (TRIS 20 mM, 5° C., 8 weeks): 9.02
Cinacalcet conc. (TRIS 20 mM, 5° C., 12 weeks): 4.76 mg/mL
D(4, 3) (TRIS 20 mM, 5° C., 12 weeks): 0.29 µm
pH (TRIS 20 mM, 5° C., 12 weeks): 8.93
Cinacalcet conc. (TRIS 20 mM, 40° C., 0 weeks): 4.92 mg/mL
D(4, 3) (TRIS 20 mM, 40° C., 0 weeks): 0.29 µm
pH (TRIS 20 mM, 40° C., 0 weeks): 9.13
Cinacalcet conc. (TRIS 20 mM, 40° C., 2 weeks): 4.48 mg/mL
D(4, 3) (TRIS 20 mM, 40° C., 2 weeks): 0.29 µm
pH (TRIS 20 mM, 40° C., 2 weeks): 8.82
Cinacalcet conc. (TRIS 20 mM, 40° C., 4 weeks): 4.75 mg/mL
D(4, 3) (TRIS 20 mM, 40° C., 4 weeks): 0.29 µm
pH (TRIS 20 mM, 40° C., 4 weeks): 8.79
Cinacalcet conc. (TRIS 20 mM, 40° C., 6 weeks): 4.73 mg/mL
D(4, 3) (TRIS 20 mM, 40° C., 6 weeks): 0.29 µm
pH (TRIS 20 mM, 40° C., 6 weeks): 8.75
Cinacalcet conc. (TRIS 20 mM, 40° C., 8 weeks): 4.96 mg/mL
D(4, 3) (TRIS 20 mM, 40° C., 8 weeks): 0.29 µm
pH (TRIS 20 mM, 40° C., 8 weeks): 8.76
Cinacalcet conc. (TRIS 20 mM, 40° C., 12 weeks): 4.82 mg/mL
D(4, 3) (TRIS 20 mM, 40° C., 12 weeks): 0.29 µm
pH (TRIS 20 mM, 40° C., 12 weeks): 8.63
